Source: paper PMC6896158, “Enzymatic Characterization of Wild-Type and Mutant Janus Kinase 1” (Cancers, 2019)
Like-named read-outs stand apart in the source and are kept apart here. Values belong to the molecule of their own block, whether it stands above or below them.

What was measured:
[1] = test system: JAK1 wild-type and V658F; assay: Steady-state kinetics in the presence and absence of IFNλR peptide; format: biochemical, human; conditions: 2 µM IFNλR peptide
Experimental: Receptor-binding is an important regulator of the activity of JAK in vivo and may be required in order for the V658F mutation to induce constitutive activity. Although we cannot include full-length receptor constructs in these assays we were able to include a peptide fragment that represents the box1/2 motifs. Therefore, we performed steady-state kinetics using JAK1 wild-type and V658F in the presence and absence of saturating concentrations of the IFNλR peptide.
The 10 µL reaction mix contained 0.5 µL 20× Kinase Assay Buffer, 1 µCi γ-^32P-ATP and varying concentrations of ATP, STAT5b peptide, and inhibitor, as described for each experiment. Reactions were started with the addition of 5 µL JAK solution, with concentration as described for each experiment. After incubation at room temperature for 20–60 min, a 3.5 µL reaction mix was spotted onto P81 phosphocellulose paper (Dr. J. Oakhill, SVIMR. Australia) and the paper was placed into 5% (v/v) H3PO4. […] The plate was scanned using a Typhoon FLA 7000 phosphorimager (GE Life Sciences, Chicago, IL, USA) and the incorporated radioactivity of each spot was quantitated using ImageQuant TL software (GE Life Sciences). The background radioactivity, quantified from an area of the paper without reaction mix, was subtracted from that for the experimental spots.

[2] = target: T1, JAK1 FERM-SH2 domain (Homo sapiens, UniProt P23458); assay: Isothermal titration calorimetry of IFNλR Box1/Box2 peptide binding; conditions: peptide of IFNλR Box1 and Box2 motifs (human residues K250 - T299)
T1 construct: FERM-SH2 domains, 25-559; His tag (TEV-cleavable) (N, cleaved yes); made in house; host or cells: Sf21 insect cells (baculovirus)
Source text: We considered the possibility that the pseudokinase and kinase domains of JAK may affect the binding of JAK to the cytokine receptor (either directly or allosterically), as well as the possibility that the V658F mutation might exert its oncogenic effect by influencing the interaction of JAK with receptor. […] We performed isothermal titration calorimetry (ITC) to determine the affinity of a peptide representing the IFNλR Box1 and Box2 motifs (human residues K250 - T299). […] However, there was no significant effect on receptor binding between the wild-type and mutant forms of the enzyme.

[3] = target: T2, JAK1 (Homo sapiens, UniProt P23458); assay: Steady-state kinetics, kinase activity assay (KM for ATP and STAT5b peptide); format: biochemical; conditions: 6 mM peptide substrate, read-out: KM, app (ATP)
T2 construct: full length, 25-1154; His tag (TEV-cleavable) (N, cleaved yes); made in house; host or cells: Sf21 insect cells (baculovirus)

[4] = target: JAK1 constructs (Homo sapiens, UniProt P23458); assay: Thermal shift assay (SYPRO orange); format: binding; conditions: all constructs containing a kinase domain
Experimental: To determine whether the V658F mutation affects protein stability we performed thermal shift assays on all the JAK constructs in the presence and absence of various cofactors that bind the kinase domain. SYPRO orange, which fluoresces when bound to hydrophobic residues, was added to a solution of protein and ligand. Fluorescence was measured as the temperature of the solution was increased, with increased fluorescence indicating the unfolding of the protein. The melting temperature (Tm) is represented by the inflection point of the fluorescence curve, with a higher Tm indicating greater thermal stability.
JAKs of 3–5 µg were diluted into the JAK Gel Filtration Buffer with 0.04× SYPRO orange, 4% (v/v) DMSO plus either 20 mM EDTA, 1 mM ATP and 2 mM MgCl2, or 6 µM itacitinib, and with or without 5 µM receptor peptide. The temperature was raised in 1 °C per min steps from 25 °C to 80 °C and fluorescence readings at 530 nm were taken at each interval. Sigmoidal curves were fitted to the fluorescence data to provide Tm values for each experiment.

[5] = target: IFNλR (Homo sapiens) (UniProt Q8IU57); conditions: cited from earlier work
[6] = target: JAK1 (wild type constructs) (Homo sapiens, UniProt P23458); assay: Kinase assay with titration of itacitinib (γ-32P-ATP, STAT5b peptide); format: biochemical; conditions: all wild type constructs (kinase domain, pseudokinase-kinase, full length); Ki=IC50/(1+S/KM)
Experimental: (§1) To our knowledge, it is unknown whether small-molecule JAK inhibitors bind the wild-type and mutant forms of the enzyme with equal affinity. Therefore, the inhibition constant (Ki) for Itacitinib was determined. JAK1 activity was measured by kinase assay in the presence of increasing concentrations of Itacitinib.
(§2) The 10 µL reaction mix contained 0.5 µL 20× Kinase Assay Buffer, 1 µCi γ-^32P-ATP and varying concentrations of ATP, STAT5b peptide, and inhibitor, as described for each experiment. Reactions were started with the addition of 5 µL JAK solution, with concentration as described for each experiment. After incubation at room temperature for 20–60 min, a 3.5 µL reaction mix was spotted onto P81 phosphocellulose paper (Dr. J. Oakhill, SVIMR. Australia) and the paper was placed into 5% (v/v) H3PO4. Paper was washed 4 × 15 min with 100 mL 5% (v/v) H3PO4, followed by 1 × 1 min with acetone. Paper was dried and exposed to a phosphorimager plate overnight. The plate was scanned using a Typhoon FLA 7000 phosphorimager (GE Life Sciences, Chicago, IL, USA) and the incorporated radioactivity of each spot was quantitated using ImageQuant TL software (GE Life Sciences). The background radioactivity, quantified from an area of the paper without reaction mix, was subtracted from that for the experimental spots. […]

[7] = target: JAK1 V658F (Homo sapiens, UniProt P23458, V658F); assay: as above; format: biochemical; conditions: V658F constructs (pseudokinase-kinase, full length); Ki=IC50/(1+S/KM)
Experimental: as §1, §2

[8] = target: T3, full length JAK1 V658F (ΔN25) (human, UniProt P23458 25-1154, V658F); assay: ITC; IFNλR Box1/Box2 peptide binding to purified JAK1 constructs; three independent experiments; conditions not described in the methods; conditions: both partners purified
T3 construct: human JAK1, the 'full length' construct, residues 25-1154, with the cancer-linked mutation V658F in the pseudokinase domain; also called FL V658F; JAK1 FL V658F; source: Sf21 insect cells, baculovirus, purified (HisTrap, TEV cleavage, Superdex 200); not shown: His tag, N-terminal, cleaved

[9] = target: T4, full length wild type JAK1 (ΔN25) (human, UniProt P23458 25-1154); assay: as above; conditions: both partners purified
T4 construct: human JAK1, the 'full length' construct, residues 25-1154 (the N-terminal residues deleted for expression); The results say the 25 N-terminal residues were deleted, the methods give 25-1154; also called FL WT; JAK1 FL WT; source: Sf21 insect cells, baculovirus, purified (HisTrap, TEV cleavage, Superdex 200); not shown: His tag, N-terminal, cleaved

[10] = target: T5, JAK1 FERM-SH2 domains (human, UniProt P23458 25-559); assay: as above; conditions: both partners purified
T5 construct: human JAK1 FERM-SH2 domains, residues 25-559; source: Sf21 insect cells, baculovirus, purified (HisTrap, TEV cleavage, Superdex 200); not shown: His tag, N-terminal, cleaved
T5 sequence (P23458 25-559): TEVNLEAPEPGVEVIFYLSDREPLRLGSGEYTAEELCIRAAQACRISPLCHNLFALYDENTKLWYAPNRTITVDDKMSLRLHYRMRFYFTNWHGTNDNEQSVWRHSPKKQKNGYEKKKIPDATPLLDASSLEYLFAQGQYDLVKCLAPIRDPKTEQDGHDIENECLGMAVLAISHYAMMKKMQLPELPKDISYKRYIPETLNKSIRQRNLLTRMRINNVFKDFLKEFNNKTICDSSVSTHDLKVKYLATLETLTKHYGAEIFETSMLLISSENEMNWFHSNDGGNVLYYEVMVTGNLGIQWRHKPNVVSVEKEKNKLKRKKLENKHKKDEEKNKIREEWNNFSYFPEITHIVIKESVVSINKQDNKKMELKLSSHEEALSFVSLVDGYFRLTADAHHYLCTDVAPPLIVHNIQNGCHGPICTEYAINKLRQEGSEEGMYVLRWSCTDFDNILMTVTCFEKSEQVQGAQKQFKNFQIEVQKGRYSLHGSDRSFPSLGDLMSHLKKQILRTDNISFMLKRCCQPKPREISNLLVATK

JAK1 constructs, sequence (P23458 862-1154 limits assumed): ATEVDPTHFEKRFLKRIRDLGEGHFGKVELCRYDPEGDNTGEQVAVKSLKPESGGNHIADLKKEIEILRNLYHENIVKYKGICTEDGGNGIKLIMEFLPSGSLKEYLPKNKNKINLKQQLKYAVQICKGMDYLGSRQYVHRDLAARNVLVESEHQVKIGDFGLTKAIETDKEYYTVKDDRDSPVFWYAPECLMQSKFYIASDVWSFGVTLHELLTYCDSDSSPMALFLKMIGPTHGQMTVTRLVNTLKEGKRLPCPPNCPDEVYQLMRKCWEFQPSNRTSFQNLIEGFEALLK
JAK1 V658F, sequence (P23458 25-1154 V658F): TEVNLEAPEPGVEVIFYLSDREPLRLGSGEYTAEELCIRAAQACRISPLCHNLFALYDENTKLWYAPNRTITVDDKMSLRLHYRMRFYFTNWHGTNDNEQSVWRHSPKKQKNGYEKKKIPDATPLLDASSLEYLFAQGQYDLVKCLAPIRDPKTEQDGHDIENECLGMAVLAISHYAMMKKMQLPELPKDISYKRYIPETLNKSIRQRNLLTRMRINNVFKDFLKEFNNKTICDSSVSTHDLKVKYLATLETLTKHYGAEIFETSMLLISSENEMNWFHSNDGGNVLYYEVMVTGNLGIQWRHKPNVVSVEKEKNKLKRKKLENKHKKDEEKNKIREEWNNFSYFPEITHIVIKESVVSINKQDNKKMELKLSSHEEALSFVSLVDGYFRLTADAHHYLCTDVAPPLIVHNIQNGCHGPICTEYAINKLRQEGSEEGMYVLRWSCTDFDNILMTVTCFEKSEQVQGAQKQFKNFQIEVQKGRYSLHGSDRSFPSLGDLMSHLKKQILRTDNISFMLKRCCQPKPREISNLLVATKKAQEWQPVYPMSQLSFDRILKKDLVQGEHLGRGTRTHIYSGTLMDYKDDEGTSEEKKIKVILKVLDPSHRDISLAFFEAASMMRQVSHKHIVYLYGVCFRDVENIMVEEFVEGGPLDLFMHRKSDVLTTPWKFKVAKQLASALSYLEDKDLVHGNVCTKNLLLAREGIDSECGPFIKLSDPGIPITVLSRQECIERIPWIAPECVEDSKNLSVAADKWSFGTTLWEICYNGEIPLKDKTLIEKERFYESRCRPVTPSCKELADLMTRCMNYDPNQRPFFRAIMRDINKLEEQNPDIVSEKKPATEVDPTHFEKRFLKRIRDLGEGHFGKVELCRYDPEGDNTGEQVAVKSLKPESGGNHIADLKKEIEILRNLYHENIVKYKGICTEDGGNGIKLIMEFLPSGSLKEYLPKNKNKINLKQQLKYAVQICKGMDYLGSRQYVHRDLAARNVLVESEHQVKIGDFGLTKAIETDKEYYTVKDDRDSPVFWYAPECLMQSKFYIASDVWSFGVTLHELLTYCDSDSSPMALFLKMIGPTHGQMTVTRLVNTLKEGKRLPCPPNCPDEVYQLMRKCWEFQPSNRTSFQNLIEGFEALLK
T3 sequence (P23458 25-1154 V658F): as above
JAK1 wild-type and V658F, sequence (P23458 25-559 limits assumed, stated change not applied): as the sequence (P23458 25-559) above
T1 sequence (P23458 25-559): as above
IFNλR (Homo sapiens), sequence (Q8IU57 21-520): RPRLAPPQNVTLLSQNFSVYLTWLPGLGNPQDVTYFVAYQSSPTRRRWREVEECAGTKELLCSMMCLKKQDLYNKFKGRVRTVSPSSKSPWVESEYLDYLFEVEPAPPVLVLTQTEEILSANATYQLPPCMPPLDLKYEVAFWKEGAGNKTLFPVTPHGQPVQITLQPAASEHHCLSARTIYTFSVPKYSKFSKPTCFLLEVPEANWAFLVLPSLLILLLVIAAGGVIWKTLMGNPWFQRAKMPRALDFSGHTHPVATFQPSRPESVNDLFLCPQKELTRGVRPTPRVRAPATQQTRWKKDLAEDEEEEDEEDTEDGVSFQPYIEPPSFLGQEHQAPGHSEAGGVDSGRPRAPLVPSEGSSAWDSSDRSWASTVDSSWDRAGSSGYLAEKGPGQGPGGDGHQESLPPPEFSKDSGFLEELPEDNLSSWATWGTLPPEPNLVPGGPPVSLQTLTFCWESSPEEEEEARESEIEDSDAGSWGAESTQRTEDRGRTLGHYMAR
T4 sequence (P23458 25-1154, stated change not applied): as the sequence (P23458 25-1154 V658F) above, with F634V counted along it
JAK1 (wild type constructs), sequence (P23458 862-1154 limits assumed): as the sequence (P23458 862-1154 limits assumed) above

- effect on ATP KM or turnover rate [1]: no significant differences
Molecule: IFNλR peptide: peptide representing the IFNλR Box1 and Box2 motifs (human residues K250 - T299) (KTLMGNPWFQRAKMPRALDFSGHTHPVATFQPSRPESVNDLFLCPQKELT)
- affinity (ITC) [2]: near-identical affinity to that previously reported

Molecule: Nc1ncnc2c1ncn2[C@@H]1O[C@H](COP(=O)(O)OP(=O)(O)OP(=O)(O)O)[C@@H](O)[C@H]1O [ATP]
- Km ([3]; full-length enzyme): 25 µM
- Km ([3]; kinase domain alone): 175 µM
- Tm change ([4]; 1 mM ATP and 2 mM MgCl2, compared to EDTA): increased Tm

Molecule: JAK1 FERM-SH2 (from UniProt P23458)
- Kd [5]: 71 nM

Molecule: N#CCC1(n2cc(-c3ncnc4[nH]ccc34)cn2)CN(C2CCN(C(=O)c3ccnc(C(F)(F)F)c3F)CC2)C1 [itacitinib]
- Tm change ([4]; 6 µM itacitinib, compared to ATP/Mg2+): further Tm increase
- Ki [6]: 0.5 to 2 nM
- Ki [7]: 0.5 to 2 nM

- binding result [8]: binds
- binding result [9]: binds
- binding result [10]: binds
B1: peptide representing the IFNλR Box1 and Box2 motifs (human residues K250 - T299) (peptide, UniProt Q8IU57 250-299, looked up)
peptide: KTLMGNPWFQRAKMPRALDFSGHTHPVATFQPSRPESVNDLFLCPQKELT
notes: human interferon-lambda receptor (IFNλR), intracellular Box1 and Box2 motifs, residues K250-T299; also called IFNλR peptide; interferon lambda box1-box2 peptide
